# Test results reported in paper PMC12194305, “Assessing Bioconcentration and Biotransformation of BDE-47 In Vitro: The Relevance of Bioavailable and Intracellular Concentrations” (Journal of Xenobiotics, 2025).
# Read-outs that look alike come from different tables or passages of the source.
# How the values were obtained:
# [1] = parameters: method as in PMID 37289209; conditions: initial exposure 20 mg·L^−1, HepG2 cell assay at 37 °C; cited from earlier work
# zebrafish = test: IVIVE-BCF model with zebrafish default parameters; type: in vitro ADME; conditions: k1 and k2 from experimental Ccell and Cfree
# ZFL cells [2] = test: Cell exposure for bioaccumulation: Ccell, Cmedium and in vitro BCF (ratio and toxicokinetic fit); type: cell-based, zebrafish; conditions: for BCFexp, 24 h / BCFexp, 48 h / BCFexp, 72 h: Ccell,exp/Cmedium
# Method: A total of 2 × 10^6 ZFL cells were plated in P100 glass dishes and incubated for 24 h under standard culture conditions. Subsequently, the culture medium was replaced with a contaminated medium, which, according to the cell viability assay, maintained viability above 70% by the end of the exposure period (Section 2.3). Cells were exposed to 1.8 and 2.6 mg⋅L^−1 for 24, 48 and 72 h, in two independent experiments. Parallel experiments were conducted under identical conditions to assess losses: one set included cells without contaminated medium, and another consisted of contaminated medium without cells (“no cells”). The obtained pellets were collected from all exposure time, dried under a gentle stream of nitrogen and weighed on a precision analytical balance (±0.00001 g). Finally, the dried cell pellets and their corresponding medium collected at all exposure times, including the starting medium (“t = 0 h”), were stored at −20 °C until analysis.
# Extraction of BDE-47 and its metabolites was performed simultaneously for each of the samples, cells, and exposure media. Finally, 500 μL of exposure medium was extracted with 500 μL of hexane: MTBE mixture (1:1) shaken vigorously with a vortex for 30 s. For cells, the pellet obtained (~5 mg) was treated with same solvents but assisted with an ultrasound probe for 1 min at 30% of amplitude and a pulse on/off, with 2 s/5 s for cell samples. The internal standards (IS) BDE-99 and TCS had been previously added. The mixture was centrifuged for 10 min at 10,000 rpm. The organic phase was separated, and the extraction step was repeated. Remaining extracts were evaporated to dryness under a gentle stream of nitrogen and reconstituted in 200 μL isooctane. A total of 80 μL of the volume obtained was derivatized with 20 μL of MTBSTFA at 70 °C for 30 min in the oven and injected into GC-μECD-MS for the OH-BDE quantification. PBDEs and MeO-BDEs were determined by direct injection of the remaining volume of isooctane extracts into the GC-µECD-MS, because PBDEs are not stable after the derivatization process. Due to the difference in concentration in the samples of the metabolites and BDE-47, a double determination was performed and diluted with isooctane for the detection of the latter, so that it was interpolated on the same calibration curve.
# The GC–MS-µECD system was used for the separation and determination of BDE-47 and its metabolites. The MS was used for the identification and the µECD for their quantification. Both detectors operate simultaneously, thanks to the use of a flow splitter placed at the end of the chromatographic column. Sample (1 μL) were injected in splitless mode at 280 °C. Helium was used as carrier gas at a constant pressure of 22 psi. Column temperature was programmed to increase from 130 °C (1 min) to 222 °C (1 min) at a rate of 90 °C·min^−1, then to 245 °C (1 min) at 1 °C·min^−1 and finally to 280 °C (8 min) at 45 °C·min^−1. The μECD temperature was set at 320 °C and nitrogen was used as makeup gas (30 mL·min^−1). The flow ratio of the splitter was 1:1, thanks to the helium input and the restrictor length of each detector, according to the manual supplied by Agilent Technologies. m/z values for the SIM program are collected in Table S1.
# The first quantitative estimation of BCF was carried out according to the definition of BCF in the official OECD 305 guideline; that is, the ratio between the chemical concentration in the cells (Ccell) and the chemical concentration of the surrounding medium (Cmedium). As explained earlier, Ccell can be determined experimentally (Ccell,exp) or by MBM (Ccell,MBM). Both these terms can be related to the experimentally determined concentration in the medium (Cmedium), the free concentration experimentally determined (Cfree,exp) or the free concentration estimated using MBM (Cfree,MBM). […]
# [3] = system: Mytilus galloprovincialis (mussel); conditions: cited from earlier work
# Gammarus pulex = system: Gammarus pulex; parameters: method as in PMID 24879528; conditions: 1 µg·L^−1; cited from earlier work
# ZFL cells [4] = system: ZFL cells; parameters: method as in PMID 25544063; conditions: 10% FBS, cited from earlier work
# [5] = Cnominal 1.8 mg·L^−1, first-order toxicokinetic fit k1/k2
compound,measurement,setting,value
"Brc1ccc(Oc2ccc(Br)cc2Br)c(Br)c1 [BDE-47, 2,2′,4,4′-tetrabromodiphenyl ether]",volatilization loss,[1],14%
same,"BCFIVIVE, ZF, exp",zebrafish; Cnominal 1.8 mg·L^−1,"22,614 L·kg^−1"
same,"BCFIVIVE, ZF, exp",zebrafish; Cnominal 2.6 mg·L^−1,"38,948 L·kg^−1"
same,Recovery in the mass balance,"ZFL cells [2]; 24 h, 1.8 mg·L^−1, BDE-47 plus metabolites in cells, medium and losses",77%
same,Recovery in the mass balance,"ZFL cells [2]; 24 h, 2.6 mg·L^−1",79%
same,Recovery in the mass balance,"ZFL cells [2]; 48 h, 1.8 mg·L^−1",70%
same,Recovery in the mass balance,"ZFL cells [2]; 48 h, 2.6 mg·L^−1",82%
same,Recovery in the mass balance,"ZFL cells [2]; 72 h, 1.8 mg·L^−1",74%
same,Recovery in the mass balance,"ZFL cells [2]; 72 h, 2.6 mg·L^−1",97%
same,average decrease of Cmedium over time from nominal concentration,ZFL cells [2]; Cnominal 1.8 mg·L^−1,79%
same,"BCFexp, 24 h",ZFL cells [2]; Cnominal 1.8 mg·L^−1,50 L/kg
same,"BCFexp, 48 h",ZFL cells [2]; Cnominal 1.8 mg·L^−1,83 L/kg
same,"BCFexp, 72 h",ZFL cells [2]; Cnominal 1.8 mg·L^−1,100 L/kg
same,"BCFk Ccell exp/Cfree,exp",ZFL cells [2]; [5],"74,300 L·kg^−1"
same,BCFk Ccell exp/Cw,ZFL cells [2]; [5],30 L/kg
same,average decrease of Cmedium over time from nominal concentration,ZFL cells [2]; Cnominal 2.6 mg·L^−1,33%
same,"BCFexp, 24 h",ZFL cells [2]; Cnominal 2.6 mg·L^−1,51 L/kg
same,"BCFexp, 48 h",ZFL cells [2]; Cnominal 2.6 mg·L^−1,55 L/kg
same,"BCFexp, 72 h",ZFL cells [2]; Cnominal 2.6 mg·L^−1,80 L/kg
same,"BCFk Ccell exp/Cfree,exp","ZFL cells [2]; Cnominal 2.6 mg·L^−1, first-order toxicokinetic fit k1/k2","63,435 L·kg^−1"
same,BCFk,[3]; 0.31 ng·L^−1,"26,000 L·kg^−1"
same,BCFk,[3]; 8 µg·L^−1,"10,900 L·kg^−1"
same,BCFk,Gammarus pulex,~5000 L/kg
same,LC50 (24 h),ZFL cells [4]; 24 h,1.60 µg/mL
same,LC50 (96 h),ZFL cells [4]; 96 h,1.26 µg/mL
